According to article PMC3185947 (British Journal of Cancer, 2011):
Read-outs that look alike come from different tables or passages of the source. Marks after values point to notes of the source that are not given here.

Settings: in vivo; for OSI-420 AUC0–24 / OSI-420 Cmax / OSI-420 Tmax, median (range) / OSI-420 Tmax: human
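Further: pharmacokinetic parameters derived by non-compartmental analysis.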

OSI-420 AUC0–24 (150 mg): 2.56 (0.599–10.5) ^a μg h ml^−1
OSI-420 Cmax (150 mg): 0.165 (0.0452–0.568) μg ml^−1
OSI-420 Tmax, median (range) (150 mg): 4.0 (1.05–23.9) h
OSI-420 AUC0–24 (200 mg): 4.55 (0.996–19.2) μg h ml^−1
OSI-420 Cmax (200 mg): 0.278 (0.0617–0.864) μg ml^−1
OSI-420 Tmax, median (range) (200 mg): 2.0 (1.00–24.0) h
OSI-420 AUC0–24 (225 mg): 4.10 (1.57–19.7) μg h ml^−1
OSI-420 Cmax (225 mg): 0.260 (0.116–0.908) μg ml^−1
OSI-420 Tmax, median (range) (225 mg): 2.0 (0.930–8.00) h
OSI-420 AUC0–24 (250 mg): 3.32 (1.52–16.4) μg h ml^−1
OSI-420 Cmax (250 mg): 0.219 (0.119–0.760) μg ml^−1
OSI-420 Tmax, median (range) (250 mg): 4.0 (1.00–8.00) h
OSI-420 AUC0–24 (275 mg): 3.62 (1.51–15.7) μg h ml^−1
OSI-420 Cmax (275 mg): 0.223 (0.107–0.929) μg ml^−1
OSI-420 Tmax, median (range) (275 mg): 2.0 (1.00–8.02) h
OSI-420 AUC0–24 (300 mg): 4.23 (1.38–6.32) μg h ml^−1
OSI-420 Cmax (300 mg): 0.273 (0.133–0.346) μg ml^−1
OSI-420 Tmax, median (range) (300 mg): 2.0 (1.00–2.03) h
OSI-420 AUC0–24 (325 mg): 4.18 (2.26, 6.09) μg h ml^−1
OSI-420 Cmax (325 mg): 0.344 (0.222, 0.426) μg ml^−1
OSI-420 Tmax, median (range) (325 mg): 1.5 (2.00, 1.00) h
OSI-420 AUC0–24 (350 mg): 2.33 (2.94, 1.72) μg h ml^−1
OSI-420 Cmax (350 mg): 0.169 (0.243, 0.0945) μg ml^−1
OSI-420 Tmax, median (range) (350 mg): 2.0 (2.00, 2.03) h
OSI-420 AUC0–24 (375 mg): 3.80 µg·h/mL
OSI-420 Cmax (375 mg): 0.253 µg/mL
OSI-420 Tmax (375 mg): 1.0 h
OSI-420 AUC0–24 (400 mg): 6.84 µg·h/mL
OSI-420 Cmax (400 mg): 0.454 µg/mL
OSI-420 Tmax (400 mg): 2.0 h
OSI-420 AUC0–24 (425 mg): 5.02 µg·h/mL
OSI-420 Cmax (425 mg): 0.293 µg/mL
OSI-420 Tmax (425 mg): 2.0 h
OSI-420 AUC0–24 (450 mg): 8.78 µg·h/mL
OSI-420 Cmax (450 mg): 0.489 µg/mL
OSI-420 Tmax (450 mg): 4.0 h
Interpatient and intrapatient variability of PK: High
SMILES: C#Cc1cccc(Nc2ncnc3cc(OCCOC)c(OCCO)cc23)c1 [OSI-420]
